This passage reports IC50 and IC90 results from ChEMBL document CHEMBL4483862, “Open-source discovery of chemical leads for next-generation chemoprotective antimalarials” (2018).

The structures appear in SMILES notation.

For the assay, the system named is Plasmodium berghei. Nature of the assay: Luciferase/luciferin-expressing antifolate-resistant parasites were used to infect a culture of HepG2 cells that were pre-incubated with compounds. Infected hepatocytes emit light due to the luciferase reaction. Assay results are presented as the percent inhibition of light emission compared to control. […]. The class given is functional. To be noted: sporozoite; for IC90: read-out: LUCIFERASE INFECTION ASSAY - IC90.

Where [1] appears, read: PBLUC_HILL_SLOPE 1, PBLUC_R_SQUARED 0.439, read-out: LUCIFERASE INFECTION ASSAY - IC50.

With `Cc1ccc2c(Cl)cc(Cl)c(OCC(=O)N(C(C)C)C(C)C)c2n1`, the IC90 was > 10 µM. Also, the IC50 (PBLUC_HILL_SLOPE 0.984, PBLUC_R_SQUARED 0.0595, read-out: LUCIFERASE INFECTION ASSAY - IC50) is > 10 µM.
`CC(=O)c1c(C)[nH]c(C(=O)OCCOc2ccccc2)c1C`: the IC90 was > 10 µM. Further, the half-maximal inhibitory concentration (IC50) (PBLUC_HILL_SLOPE 1.04, PBLUC_R_SQUARED 0.638, read-out: LUCIFERASE INFECTION ASSAY - IC50) was determined as 1.81 µM.
On to `CC(C)(C)NCc1cc(Cl)ccc1OCc1ccccc1F`, for which the concentration for an effect of 90% (IC90) was > 9.21 µM. Also, the half-maximal inhibitory concentration (IC50) (PBLUC_HILL_SLOPE 1.1, PBLUC_R_SQUARED 0.254, read-out: LUCIFERASE INFECTION ASSAY - IC50) turned out to be 4.67 µM.
In the case of `CC(C)c1ccccc1NC(=O)Nc1nc(C(N)Cc2ccc(C(F)(F)F)cc2)cs1` (centres undefined), the 90% effect concentration (IC90) is > 7.36 µM. For the same molecule, the IC50 (PBLUC_HILL_SLOPE 1.06, PBLUC_R_SQUARED 0.663, read-out: LUCIFERASE INFECTION ASSAY - IC50) was 1.89 µM.
Consider `Nc1ccc(-c2cn3c(-c4cccc(Cl)c4)cnc3cn2)cn1`, for which the IC90 was > 10.3 µM. Moreover, the concentration for half-maximal inhibition (IC50) (PBLUC_HILL_SLOPE 1.1, PBLUC_R_SQUARED 0.459, read-out: LUCIFERASE INFECTION ASSAY - IC50) amounted to 5.57 µM.
In the case of `NC(Cc1ccc(Cl)cc1)c1csc(Nc2nncc3ccccc23)n1` (centres undefined), the IC90 is > 8.64 µM. Besides, the IC50 (PBLUC_HILL_SLOPE 1.01, PBLUC_R_SQUARED 0.151, read-out: LUCIFERASE INFECTION ASSAY - IC50) came out at 5.44 µM.
As for `Cc1nn(Cc2ccc(C(=O)NC3CC3)cc2)c(C)c1[N+](=O)[O-]`, the IC90 is > 10 µM. Moreover, for the setting “PBLUC_HILL_SLOPE 1.06, PBLUC_R_SQUARED 0.0833, read-out: LUCIFERASE INFECTION ASSAY - IC50”, the IC50 was > 10 µM.
Regarding `NC(=O)c1nc[nH]c1NC(=O)Cc1ccc(-c2ccccc2)cc1`, the IC90 is > 10 µM. For the same molecule, the IC50 (PBLUC_HILL_SLOPE 1, PBLUC_R_SQUARED 0.17, read-out: LUCIFERASE INFECTION ASSAY - IC50) was > 10 µM.
As to `CC(=O)c1ccc(NC(=O)CCn2nnc(-c3ccc(C(C)C)cc3)n2)cc1`, the IC90 is > 10 µM. Also, the IC50 under setting [1] came to 6.32 µM.
Turning to `CCOC(=O)c1cc(-c2ccc(OC)cc2)nn1-c1cccc(C)c1`, the IC90 was > 10 µM. Also, the IC50 (PBLUC_HILL_SLOPE 0.992, PBLUC_R_SQUARED 0.815, read-out: LUCIFERASE INFECTION ASSAY - IC50) was > 10 µM.
For `S=C(Nc1ccc(Oc2ccccc2)cc1)Nc1cccc2cnccc12`, the concentration for an effect of 90% (IC90) is > 10 µM. In addition, the IC50 (PBLUC_HILL_SLOPE 1.05, PBLUC_R_SQUARED 0.612, read-out: LUCIFERASE INFECTION ASSAY - IC50) is 4.86 µM.
`Cc1ccc2nc3ccccc3c(N3CCN(C(=O)c4ccccc4)CC3)c2c1`: the concentration for an effect of 90% (IC90) turned out to be 3.42 µM. Further, the IC50 (PBLUC_HILL_SLOPE 1, PBLUC_R_SQUARED 0.729, read-out: LUCIFERASE INFECTION ASSAY - IC50) was 0.384 µM.
Regarding `Clc1ccccc1/C=N/Nc1nc(-c2cc(-c3ccccc3)no2)cs1`, the IC90 is > 8.66 µM. Moreover, the 50% inhibitory concentration (IC50) (PBLUC_HILL_SLOPE 1.1, PBLUC_R_SQUARED 0.687, read-out: LUCIFERASE INFECTION ASSAY - IC50) was determined as 6.48 µM.
For `COc1cc2c(cc1NC(=O)C(C)N1CCC(C(N)=O)CC1)oc1ccccc12` (centres undefined), the 90% effect concentration (IC90) was > 10 µM. In addition, the IC50 (PBLUC_HILL_SLOPE 1.06, PBLUC_R_SQUARED 0.647, read-out: LUCIFERASE INFECTION ASSAY - IC50) was 1.32 µM.
With `CC1(C)CC2CC(C)(CN2C(=O)CSc2nnc(-c3cc(-c4cccs4)nc4ccccc34)o2)C1` (centres undefined), the IC90 is > 10 µM. The IC50 (PBLUC_HILL_SLOPE 1.06, PBLUC_R_SQUARED 0.333, read-out: LUCIFERASE INFECTION ASSAY - IC50) is > 10 µM.
As for `Cc1ccccc1-c1cn2c(-c3cccc(C(=O)N4CCN(C)CC4)c3)cnc2cn1`, the IC90 was > 8.02 µM. Further, where the note is “PBLUC_HILL_SLOPE 1.06, PBLUC_R_SQUARED 0.743, read-out: LUCIFERASE INFECTION ASSAY - IC50”, the IC50 is 3.76 µM.
Take `COc1ccccc1N1CCN(c2oc(-c3ccccc3Cl)nc2S(=O)(=O)c2ccc(C)cc2)CC1`: the concentration for an effect of 90% (IC90) is > 10 µM. Also, under “PBLUC_HILL_SLOPE 1.06, PBLUC_R_SQUARED 0.3, read-out: LUCIFERASE INFECTION ASSAY - IC50”, the IC50 was > 10 µM.
Turning to `Cc1csc(SCC(=O)c2cc(C)n(-c3ccccc3)c2C)n1`, the IC90 was 0.219 µM. In addition, the IC50 (PBLUC_HILL_SLOPE 0.985, PBLUC_R_SQUARED 0.172, read-out: LUCIFERASE INFECTION ASSAY - IC50) turned out to be 0.0235 µM.
Turning to `Cc1cc(NC(=O)N2CCN(Cc3sc4ccccc4c3Cl)CC2)no1`, the IC90 was 1.17 µM. Besides, the IC50 (PBLUC_HILL_SLOPE 1.04, PBLUC_R_SQUARED 0.858, read-out: LUCIFERASE INFECTION ASSAY - IC50) was determined as 0.141 µM.
`O=C(Nc1nc2cc3c(cc2s1)OCCO3)c1cccc2c[nH]nc12`: the IC90 turned out to be 0.404 µM. In addition, the IC50 (PBLUC_HILL_SLOPE 1.1, PBLUC_R_SQUARED 0.666, read-out: LUCIFERASE INFECTION ASSAY - IC50) turned out to be 0.0549 µM.
For the molecule `Cc1ccc(-n2c(-c3ccc(F)cc3)nc3c2C(=O)c2ccccc2C3=O)cc1`, the IC90 is > 10 µM. Further, the concentration for half-maximal inhibition (IC50) (PBLUC_HILL_SLOPE 1.1, PBLUC_R_SQUARED 0.595, read-out: LUCIFERASE INFECTION ASSAY - IC50) worked out at 1.88 µM.
Turning to `CS(=O)(=O)N1CCCc2cc(C(=O)Nc3[nH]nc4ccccc34)ccc21`, the IC90 was > 10 µM. The IC50 (PBLUC_HILL_SLOPE 1.05, PBLUC_R_SQUARED 0.487, read-out: LUCIFERASE INFECTION ASSAY - IC50) was determined as 4.21 µM.
In the case of `Clc1ccc(-c2csc(-c3nnc4n3-c3ccccc3SC4)n2)s1`, the IC90 was > 10 µM. In addition, the IC50 under setting [1] amounted to 6.32 µM.
Take `CN1CCN(c2ccccc2NC(=O)c2cccc(Oc3ccccc3)c2)CC1`: the IC90 is 5.25 µM. Further, for the setting “PBLUC_HILL_SLOPE 1.09, PBLUC_R_SQUARED 0.715, read-out: LUCIFERASE INFECTION ASSAY - IC50”, the IC50 is 0.704 µM.
Take `CC1CC(C)CN(C(=O)CN2CCN(CC(=O)Nc3ccc(N4CCCCCC4)cc3)CC2)C1` (centres undefined): the IC90 is > 10 µM. Further, for the setting “PBLUC_HILL_SLOPE 1.09, PBLUC_R_SQUARED 0.619, read-out: LUCIFERASE INFECTION ASSAY - IC50”, the IC50 turned out to be 3.56 µM.
Regarding `CN1CCCN(C(=O)CCNC(=O)/C=C/c2ccco2)c2nc3ccccc3nc21`, the concentration for an effect of 90% (IC90) was > 10 µM. Moreover, the half-inhibitory concentration (IC50) (PBLUC_HILL_SLOPE 1.1, PBLUC_R_SQUARED 0.699, read-out: LUCIFERASE INFECTION ASSAY - IC50) came out at 1.78 µM.
For `Cc1cc(C)c(NC(=O)CNc2nn3cc(-c4ccccc4)nc3s2)c(C)c1`, the IC90 is > 10 µM. The IC50 (PBLUC_HILL_SLOPE 1.1, PBLUC_R_SQUARED 0.432, read-out: LUCIFERASE INFECTION ASSAY - IC50) came out at 1.54 µM.
Regarding `Cc1ccsc1C(O)c1nnc(N2CCCCC2)s1` (centres undefined), the concentration for an effect of 90% (IC90) turned out to be 6.49 µM. Further, where the note is “PBLUC_HILL_SLOPE 1.05, PBLUC_R_SQUARED 0.691, read-out: LUCIFERASE INFECTION ASSAY - IC50”, the IC50 amounted to 0.794 µM.
Regarding `CNc1cc(C(C)C)nc2c(-c3ccccc3)cnn12`, the IC90 is > 12.4 µM. Under “PBLUC_HILL_SLOPE 1.1, PBLUC_R_SQUARED 0.428, read-out: LUCIFERASE INFECTION ASSAY - IC50”, the IC50 is 9.54 µM.
As for `CC(NC(C)c1ccc(Cl)cc1)C(=O)Nc1sccc1C(N)=O` (centres undefined), the IC90 was > 10 µM. Further, under “PBLUC_HILL_SLOPE 1.06, PBLUC_R_SQUARED 0.69, read-out: LUCIFERASE INFECTION ASSAY - IC50”, the IC50 was determined as 2.14 µM.
`OC(c1ccc(Nc2nc3ccccc3s2)cc1)(C(F)(F)F)C(F)(F)F`: the IC90 was determined as 9.74 µM. For the same molecule, the IC50 (PBLUC_HILL_SLOPE 1.04, 1.87, PBLUC_R_SQUARED 0.121, 0.671, read-out: LUCIFERASE INFECTION ASSAY - IC50) worked out at 5.01 µM.
In the case of `Cc1ccc(S(=O)(=O)N2Cc3ccccc3C(C)CC23CCCCC3)cc1` (centres undefined), the IC90 is > 8.6 µM. Moreover, the IC50 (PBLUC_HILL_SLOPE 1.1, PBLUC_R_SQUARED 0.205, read-out: LUCIFERASE INFECTION ASSAY - IC50) was > 8.6 µM.
Take `Cn1c(Oc2cccc3c2OC(C)(C)C3)c(C#N)c(=O)n(C)c1=O`: the IC90 stood at 0.188 µM. In addition, the IC50 (PBLUC_HILL_SLOPE 0.981, PBLUC_R_SQUARED 0.556, read-out: LUCIFERASE INFECTION ASSAY - IC50) came out at 0.02 µM.
`O=C(Nc1ccc(F)cc1)Nc1cnn(-c2ccc(Cl)cc2)c1C(F)(F)F`: the IC90 worked out at 2.1 µM. Under “PBLUC_HILL_SLOPE 1.06, PBLUC_R_SQUARED 0.652, read-out: LUCIFERASE INFECTION ASSAY - IC50”, the IC50 came out at 0.266 µM.
For `CC(=O)N1CCN(C(=O)CCC(=O)Nc2nc3ccccc3s2)CC1`, the IC90 was > 10 µM. In addition, where the note is “PBLUC_HILL_SLOPE 1.05, PBLUC_R_SQUARED 0.239, read-out: LUCIFERASE INFECTION ASSAY - IC50”, the half-maximal inhibitory concentration (IC50) was > 10 µM.
As to `O=C(COc1ccc2[nH]c3ccccc3c(=O)c2c1)Nc1ccccc1Cc1ccccc1`, the IC90 was found to be 0.11 µM. Moreover, the concentration for half-maximal inhibition (IC50) (PBLUC_HILL_SLOPE 1.04, PBLUC_R_SQUARED 0.893, read-out: LUCIFERASE INFECTION ASSAY - IC50) was 0.0133 µM.
As for `Cc1c(C(=O)Nc2nc3c(s2)CCCCC3)[nH]c2c1C(=O)CC(C)(C)C2`, the IC90 is > 10 µM. In addition, the IC50 (PBLUC_HILL_SLOPE 1.1, PBLUC_R_SQUARED 0.304, read-out: LUCIFERASE INFECTION ASSAY - IC50) is 2.21 µM.
